In article PMC9797307, “Measurement of Pharmacokinetics and Tissue Distribution of Four Compounds from Nauclea officinalis in Rat Plasma and Tissues through HPLC-MS/MS” (Journal of Analytical Methods in Chemistry, 2022):

Experiment: Tissue distribution in rats after oral administration of Nauclea officinalis extracts (HPLC-MS/MS)
Type: in vivo
Protocol: Chromatographic analysis was performed on the LC-20ADXR System (Shimadzu, Japan). The Phenomenex Kinete EVO C18 100 Å (50 mm × 2.1 mm, 5 μm) column was used as the analytical column maintained at 40°C with (A) 0.1% formic acid aqueous solution and (B) acetonitrile as the mobile phase. […] The flow rate was 0.8 mL/min, and the injection volume was 5 μL.
Mass spectrometric detection was performed on an AB-SCIEX API 4000 mass spectrometer (AB SCIEX, Singapore) with ESI in negative ion multiple reaction monitoring (MRM) mode. The optimized instrument parameters were as follows: nebulizer gas: 50 psi, heated by N2 gas: 55 psi, ion spray voltage: −4500 V and temperature: 550°C; nebulizer, blowback gas, and collision gas were nitrogen; declustering potential (DP), collision energy (CE), and collision cell exit potential (CXP) of the four analytes and chloramphenicol (IS) are shown in Table 1.
Thirty rats were divided into five groups (n = 6) at random, which were orally administered Nauclea officinalis extracts at a dose of 2 g/kg for tissue distribution conducted at 0.5, 1, 2, 4, and 6 h. During the collection, the heart, liver, spleen, lung, kidney, stomach, small intestine, and brain were rinsed with physiological saline solution to get rid of the blood or content and blotted on filter paper and then weighed. Each tissue sample was accurately weighed and homogenized by using physiological saline at four times the tissue weight (w/v). The homogenates were stored at −80°C until analysis.
Drugs enter tissues that receive high blood flow first, followed by those that receive low blood flow.

Peak concentration in most tissues versus plasma (after oral extract 2 g/kg)	Detection in studied tissues (heart, liver, spleen, lung, kidney, small intestine, stomach, brain, 0.5-6 h after oral extract 2 g/kg)	Compound	Abundance in small intestine versus stomach (after oral extract 2 g/kg)
much lower than in plasma	–	O=C(/C=C/c1ccc(O)c(O)c1)O[C@@H]1C[C@](O)(C(=O)O)C[C@@H](O)[C@H]1O [Chlorogenic acid]	–
–	could be detected in all studied tissue	C/C=C1/COC(=O)[C@H]2C(=O)N3CCc4c([nH]c5ccccc45)[C@@H]3C[C@@H]12 [Naucleactonin C]	more abundant in the small intestine than in the stomach
